# Results taken from patent US4684620A, “Cyclic polypeptides having mu-receptor specificity” (Gibson-Stephens Neuropharmaceuticals, Inc., priority 1984, dated 1987).
# Positions of bridges follow the written chain, without caps; N, C: chain ends. Non-standard residues stand in square brackets, D forms with d. Residues, ends and D or L forms follow the SMILES beside them. Asu = N[C@@H](CCCCCC(=O)O)C(=O)O; dPhg = N[C@@H](C(=O)O)c1ccccc1; Pen = CC(C)(S)[C@H](N)C(=O)O
# Tests used:
# mu opioid receptor = target: T1, mu opioid receptor (Rattus norvegicus, UniProt P33535); experiment: [3H]naloxone receptor binding to rat brain homogenates; conditions: for IC50: 1 nM [3H]naloxone
# T1 construct: Adult Sprague-Dawly rats (150-200g) were killed by decapitation; The brain was rapidly removed and homogenized; from tissue; host or cells: rat brain membranes (Sprague-Dawley)
# Experimental: (§1) Adult Sprague-Dawly rats (150-200g) were killed by decapitation. The brain was rapidly removed and homogenized (10% wt/vol in 0.32 M sucrose in a glass homogenizer with a motor driven teflon pestle. The homogenate was then centrifuged at 43,000×g for 10 min and the resulting pellet was resuspended in 50 mM Trisma buffer (pH 7.4 at 25° C.) containing 5 mM MgCl2, 2 mg/ml BSA and 20 mg/ml of bacitracin, using a Polytron homogenizer (15 sec, setting 5). The centrifugation and resuspension step was repeated once.
# (§2) For all the inhibition studies, rat brain plasma membranes (100 μl ) were incubated at 25° C. for 60 min in a total of 1.0 ml of 50 mM Trisma buffer containing 220,000 dpm ^125 I-CGP 23,996. See Czernik, A. J. and Petrack, G., J. Biol. Chem. 258,5525-5530 (1983) which is herein specifically incorporated by reference. 1 nM [^3 H-]naloxone (42.3 Ci/mmol, New England Nuclear) or 1 nM [^3 H]DADLE ([D-Ala^2, D-Ala^5 ]enkephalin), [^3 H-3'5'-Tyr]DADLE, 43 Ci/mmol, New England Nuclear, and at least nine concentrations of our synthetic analogues. All incubations were done in duplicate and each compound was tested at least five times. The concentration of test compounds was determined by quantitative amino acid analysis or from published molar extinction coefficients. […] The data were analyzed using nonlinear least squares regression analysis.
# δ-opiate receptors = target: T2, δ-opiate receptors (Rattus norvegicus, UniProt P33533); experiment: [3H]DADLE receptor binding to rat brain homogenates; conditions: for IC50: 1 nM [3H]DADLE
# T2 construct: Adult Sprague-Dawly rats (150-200g) were killed by decapitation; The brain was rapidly removed and homogenized; from tissue; host or cells: rat brain membranes (Sprague-Dawley)
# Experimental: as §1, §2
# [1] = Partition coefficient, octanol-water; format: physicochemical; conditions: read-out: Partition Coefficient, Octanol-Water, log P
# mu-type opiate receptors = experiment: Guinea pig ileum (GPI) test, electrically stimulated contractions, antagonism of morphiceptin; conditions: morphiceptin alone
# Experimental: (§3) The compounds of the present invention were tested for their ability to inhibit electrically stimulated muscle contractions in the guinea pig ileum (GPI) assay and in the mouse vas deferens (MVD) assay.
# The tests in the guinea pig ileum were conducted as follows: strips of longitudinal muscle with adhering myenteric plexus were prepared from nonterminal ilea of guinea pigs and attached to a force transducer in a 60 ml isolated organ bath. Contractions were elicited by electrical stimulation with a Grass S44D stimulator.
# [2] = target: T3, delta-type opiate receptors (Mus musculus, UniProt P32300); experiment: Mouse vas deferens (MVD) test, electrically stimulated contractions, antagonism of DPDPE
# T3 construct: from tissue; host or cells: mouse vas deferens
# Experimental: as §3
# The mouse vasa deferentia tests were conducted as follows: vas deferens of male mice were placed in a 60 ml tissue bath and attached to a force transducer. Contractions were induced by electrical stimulation. […] Percent inhibition was calculated.
# T2 sequence (P33533 whole entry): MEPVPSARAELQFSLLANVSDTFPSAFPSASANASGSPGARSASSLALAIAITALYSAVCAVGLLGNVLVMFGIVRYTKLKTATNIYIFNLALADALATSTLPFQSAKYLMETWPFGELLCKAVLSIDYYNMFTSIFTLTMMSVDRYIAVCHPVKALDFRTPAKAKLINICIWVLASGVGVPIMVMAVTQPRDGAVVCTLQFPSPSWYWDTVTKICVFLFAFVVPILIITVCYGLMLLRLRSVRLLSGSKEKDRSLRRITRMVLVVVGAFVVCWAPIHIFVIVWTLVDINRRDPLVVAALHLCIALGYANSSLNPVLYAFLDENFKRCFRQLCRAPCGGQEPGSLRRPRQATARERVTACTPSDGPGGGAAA
# T3 sequence (P32300 whole entry): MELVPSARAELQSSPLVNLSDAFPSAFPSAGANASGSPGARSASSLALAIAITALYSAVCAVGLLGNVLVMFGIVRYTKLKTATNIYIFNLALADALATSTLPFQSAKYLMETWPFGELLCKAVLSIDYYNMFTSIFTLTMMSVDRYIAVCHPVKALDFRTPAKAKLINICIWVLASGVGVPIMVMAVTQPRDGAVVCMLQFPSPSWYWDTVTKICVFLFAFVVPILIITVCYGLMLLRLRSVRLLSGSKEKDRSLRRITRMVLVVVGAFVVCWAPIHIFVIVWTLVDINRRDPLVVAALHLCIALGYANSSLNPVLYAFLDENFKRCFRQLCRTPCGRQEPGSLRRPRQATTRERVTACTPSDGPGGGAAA
# T1 sequence (P33535 whole entry): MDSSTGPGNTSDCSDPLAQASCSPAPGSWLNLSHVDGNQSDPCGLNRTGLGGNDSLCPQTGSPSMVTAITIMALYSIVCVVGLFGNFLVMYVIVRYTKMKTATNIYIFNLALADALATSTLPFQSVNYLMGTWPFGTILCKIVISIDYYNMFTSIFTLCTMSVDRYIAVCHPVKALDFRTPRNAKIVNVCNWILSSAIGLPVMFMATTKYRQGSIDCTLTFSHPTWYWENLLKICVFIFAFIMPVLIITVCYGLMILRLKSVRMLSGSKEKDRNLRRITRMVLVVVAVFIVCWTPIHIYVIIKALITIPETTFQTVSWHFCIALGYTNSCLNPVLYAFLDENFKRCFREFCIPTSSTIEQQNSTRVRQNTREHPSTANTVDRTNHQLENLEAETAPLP
Compound,IC50 (mu opioid receptor) [µM],IC50 (δ-opiate receptors) [µM],logP [1],also measured
C[C@@H](O)[C@H](NC(=O)[C@@H]1CSSC(C)(C)[C@H](NC(=O)[C@H](N)Cc2ccccc2)C(=O)N[C@@H](Cc2ccc(O)cc2)C(=O)N[C@H](Cc2c[nH]c3ccccc23)C(=O)N[C@@H](CCCCN)C(=O)N[C@@H]([C@@H](C)O)C(=O)N1)C(=O)O,0.471,2.56,–,–
"CC(=O)N[C@@H](Cc1ccccc1)C(=O)N[C@H](Cc1c[nH]c2ccccc12)C(=O)N[C@@H](CCCCN)C(=O)N[C@H](C(=O)O)[C@@H](C)O [AcPhe --D-TrpLysThr, reference compound] (Ac-F[dW]KT-OH)",51.5,5.84,–,–
"C[C@@H](O)[C@@H]1NC(=O)[C@H](Cc2ccc(O)cc2)NC(=O)[C@H]([C@@H](C)O)NC(=O)[C@H](CCCCN)NC(=O)[C@H](Cc2c[nH]c3ccccc23)NC(=O)[C@H](Cc2ccccc2)NC(=O)[C@H](Cc2ccccc2)NC(=O)[C@H](CC(N)=O)NC(=O)[C@H](CCCCN)NC(=O)CCCCC[C@@H](C(=O)O)NC(=O)[C@H](CO)NC1=O [CGP 23,996, des-Ala^1,Gly^2-desamino-Cys3-[Tyr^11]-dicarba^3,14-somatostatin, reference compound] (KNFFWKTYTS[Asu]-OH; lactam N-11)",> 100,> 100,–,–
C[C@@H](O)[C@H](NC(=O)[C@H]1NC(=O)[C@H]([C@@H](C)O)NC(=O)[C@H](CCCCN)NC(=O)[C@@H](Cc2c[nH]c3ccccc23)NC(=O)[C@H](Cc2ccc(O)cc2)NC(=O)[C@@H](NC(=O)[C@H](N)Cc2ccccc2)CSSC1(C)C)C(=O)O [Example 1],–,–,0.7,–
C[C@@H](O)[C@H](NC(=O)[C@H]1NC(=O)[C@H]([C@@H](C)O)NC(=O)[C@H](CCCCN)NC(=O)[C@@H](Cc2c[nH]c3ccccc23)NC(=O)[C@H](Cc2ccc(O)cc2)NC(=O)[C@@H](NC(=O)[C@H](N)Cc2ccccc2)CSSC1(C)C)C(N)=O [Example VI],–,–,-0.2,–
C[C@@H](O)[C@H](NC(=O)[C@H]1NC(=O)[C@H]([C@@H](C)O)NC(=O)[C@H](CCCCN)NC(=O)[C@@H](Cc2c[nH]c3ccccc23)NC(=O)[C@H](Cc2ccccc2)NC(=O)[C@@H](NC(=O)[C@H](N)Cc2ccccc2)C(C)(C)SSC1(C)C)C(=O)O [Example V],–,–,0,–
C[C@@H](O)[C@H](NC(=O)[C@H]1NC(=O)[C@H]([C@@H](C)O)NC(=O)[C@H](CCCCN)NC(=O)[C@@H](Cc2c[nH]c3ccccc23)NC(=O)[C@H](Cc2ccccc2)NC(=O)[C@@H](NC(=O)[C@H](N)Cc2ccccc2)CSSC1(C)C)C(=O)O [III],–,–,-0.71,–
C[C@@H](O)[C@H](NC(=O)[C@@H]1CSSC[C@H](NC(=O)[C@H](N)Cc2ccccc2)C(=O)N[C@@H](Cc2ccccc2)C(=O)N[C@H](Cc2c[nH]c3ccccc23)C(=O)N[C@@H](CCCCN)C(=O)N[C@@H]([C@@H](C)O)C(=O)N1)C(=O)O [II],–,–,-0.77,–
C[C@@H](O)[C@H](NC(=O)[C@@H]1CSSC(C)(C)[C@H](NC(=O)[C@H](N)Cc2ccccc2)C(=O)N[C@@H](Cc2ccccc2)C(=O)N[C@H](Cc2c[nH]c3ccccc23)C(=O)N[C@@H](CCCCN)C(=O)N[C@@H]([C@@H](C)O)C(=O)N1)C(=O)O [IV],–,–,-0.22,–
NC(=O)[C@@H]1CCCN1C(=O)[C@H](Cc1ccccc1)NC(=O)[C@@H]1CCCN1C(=O)[C@@H](N)Cc1ccc(O)cc1 [Morphiceptin] (H-YPFP-NH2),–,–,–,Percent inhibition of contractions (mu-type opiate receptors; 300 nM): 28 ± 3%; Percent inhibition of contractions (mu-type opiate receptors; 1000 nM): 58 ± 3%; Percent inhibition of contractions (mu-type opiate receptors; 3000 nM): 73 ± 4%; Percent inhibition of contractions (mu-type opiate receptors; 10000 nM): 73 ± 3%
"C[C@H](N)C(=O)NCC(=O)N[C@H]1CSSC[C@@H](C(=O)O)NC(=O)[C@H](CO)NC(=O)[C@H]([C@@H](C)O)NC(=O)[C@H](Cc2ccccc2)NC(=O)[C@H]([C@@H](C)O)NC(=O)[C@H](CCCCN)NC(=O)[C@H](Cc2c[nH]c3ccccc23)NC(=O)[C@H](Cc2ccccc2)NC(=O)[C@H](Cc2ccccc2)NC(=O)[C@H](CC(N)=O)NC(=O)[C@H](CCCCN)NC1=O [SOMATOSTATIN, somatostatin, reference compound]",–,–,–,[3H]Naloxone nH (mu opioid receptor): 1.02; [3H]DADLE nH (δ-opiate receptors): 1.09
C[C@@H](O)[C@H](NC(=O)[C@@H]1CSSC(C)(C)[C@H](NC(=O)[C@H](N)c2ccccc2)C(=O)N[C@@H](Cc2ccccc2)C(=O)N[C@H](Cc2c[nH]c3ccccc23)C(=O)N[C@@H](CCCCN)C(=O)N[C@@H]([C@@H](C)O)C(=O)N1)C(=O)O [VIII] (H-[dPhg][Pen]F[dW]KTCT-OH; disulfide 2-7),–,–,-0.57,–
C[C@@H](O)[C@H](NC(=O)[C@H]1NC(=O)[C@H]([C@@H](C)O)NC(=O)[C@H](CCCCN)NC(=O)[C@@H](Cc2c[nH]c3ccccc23)NC(=O)[C@H](Cc2ccccc2)NC(=O)[C@@H](NC(=O)[C@H](N)Cc2ccccc2)CSSC1(C)C)C(N)=O [VII],–,–,0.36,–
C[C@@H](O)[C@H](NC(=O)[C@H]1NC(=O)[C@H]([C@@H](C)O)NC(=O)[C@H](CCCCN)NC(=O)[C@@H](Cc2c[nH]c3ccccc23)NC(=O)[C@H](Cc2ccc(O)cc2)NC(=O)[C@@H](NC(=O)[C@H](N)Cc2ccccc2)CSSC1(C)C)C(N)=O [drawing 24],0.0035,0.952,–,–
C[C@@H](O)[C@H](NC(=O)[C@H]1NC(=O)[C@H]([C@@H](C)O)NC(=O)[C@H](CCCCN)NC(=O)[C@@H](Cc2c[nH]c3ccccc23)NC(=O)[C@H](Cc2ccccc2)NC(=O)[C@@H](NC(=O)[C@H](N)Cc2ccccc2)CSSC1(C)C)C(N)=O [drawing 25],0.0099,1.1,–,–
C[C@@H](O)[C@H](NC(=O)[C@H]1NC(=O)[C@H]([C@@H](C)O)NC(=O)[C@H](CCCCN)NC(=O)[C@@H](Cc2c[nH]c3ccccc23)NC(=O)[C@H](Cc2ccc(O)cc2)NC(=O)[C@@H](NC(=O)[C@H](N)Cc2ccccc2)CSSC1(C)C)C(=O)O [drawing 26],0.293,3.76,–,–
C[C@@H](O)[C@H](NC(=O)[C@H]1NC(=O)[C@H]([C@@H](C)O)NC(=O)[C@H](CCCCN)NC(=O)[C@@H](Cc2c[nH]c3ccccc23)NC(=O)[C@H](Cc2ccccc2)NC(=O)[C@@H](NC(=O)[C@H](N)Cc2ccccc2)CSSC1(C)C)C(=O)O [drawing 27],0.926,5.42,–,–
C[C@@H](O)[C@H](NC(=O)[C@@H]1CSSC(C)(C)[C@H](NC(=O)[C@H](N)c2ccccc2)C(=O)N[C@@H](Cc2ccccc2)C(=O)N[C@H](Cc2c[nH]c3ccccc23)C(=O)N[C@@H](CCCCN)C(=O)N[C@@H]([C@@H](C)O)C(=O)N1)C(=O)O [drawing 28] (H-[dPhg][Pen]F[dW]KTCT-OH; disulfide 2-7),2.5,13.5,–,–
C[C@@H](O)[C@H](NC(=O)[C@H]1NC(=O)[C@H]([C@@H](C)O)NC(=O)[C@H](CCCCN)NC(=O)[C@@H](Cc2c[nH]c3ccccc23)NC(=O)[C@H](Cc2ccccc2)NC(=O)[C@@H](NC(=O)[C@H](N)Cc2ccccc2)C(C)(C)SSC1(C)C)C(=O)O [drawing 30],8.27,11.1,–,–
C[C@@H](O)[C@H](NC(=O)[C@@H]1CSSC[C@H](NC(=O)[C@H](N)Cc2ccccc2)C(=O)N[C@@H](Cc2ccccc2)C(=O)N[C@H](Cc2c[nH]c3ccccc23)C(=O)N[C@@H](CCCCN)C(=O)N[C@@H]([C@@H](C)O)C(=O)N1)C(=O)O [drawing 31],2.58,3.14,–,–
C[C@@H](O)[C@H](NC(=O)[C@@H]1CSSC(C)(C)[C@H](NC(=O)[C@H](N)Cc2ccccc2)C(=O)N[C@@H](Cc2ccccc2)C(=O)N[C@H](Cc2c[nH]c3ccccc23)C(=O)N[C@@H](CCCCN)C(=O)N[C@@H]([C@@H](C)O)C(=O)N1)C(=O)O [drawing 32],61,38.1,–,–
C[C@@H](O)[C@H](NC(=O)[C@H]1NC(=O)[C@H]([C@@H](C)O)NC(=O)[C@H](CCCCN)NC(=O)[C@@H](Cc2c[nH]c3ccccc23)NC(=O)[C@H](Cc2ccc(O)cc2)NC(=O)[C@@H](NC(=O)[C@H](N)Cc2ccccc2)CSSC1(C)C)C(N)=O [drawing 41],–,–,–,Percent inhibition of contractions ([2]; DPDPE 1 nM plus 1000 nM analog): 13 ± 3%; Percent inhibition of contractions ([2]; DPDPE 3 nM plus 1000 nM analog): 28 ± 4%; Percent inhibition of contractions ([2]; DPDPE 10 nM plus 1000 nM analog): 48 ± 8%; Percent inhibition of contractions ([2]; DPDPE 30 nM plus 1000 nM analog): 73 ± 9%; Percent inhibition of contractions ([2]; DPDPE 100 nM plus 1000 nM analog): 91 ± 5%; Percent inhibition of contractions ([2]; DPDPE 300 nM plus 1000 nM analog): 97 ± 1%
